In patent US7956053B2, “Inhibitors of tyrosine kinases” (Novartis AG, priority 2002, dated 2011):

What was measured:
Type in all cases: biochemical
[1] = target: KDR (Homo sapiens, UniProt P35968); experiment: Enzymatic KDR in vitro inhibition
In short: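 KDR kinase inhibition was measured in vitro with a radiometric filter-binding method. The kinase was incubated for 10 minutes at room temperature with poly(Glu,Tyr) 4:1 and 8 μM [^33P]-ATP (0.2 μCi) in 20 mM Tris.HCl pH 7.5 buffer with MnCl2, MgCl2, vanadate, PEG 20000, dithiothreitol and 1% DMSO. EDTA stopped the reaction, aliquots were spotted onto PVDF membranes, and after acid and ethanol washes radioactivity was counted. Results are given as % inhibition at 10 μM.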

[2] = target: T1, c-Abl (Homo sapiens, UniProt P00519); experiment: Test for activity against c-Abl protein tyrosine kinase (filter binding assay)
T1 construct: The His-tagged kinase domain of c-Abl is cloned and expressed in the baculovirus/Sf9 system; His; made in house; host or cells: baculovirus/Sf9
T1 sequence (P00519 242-493 limits assumed): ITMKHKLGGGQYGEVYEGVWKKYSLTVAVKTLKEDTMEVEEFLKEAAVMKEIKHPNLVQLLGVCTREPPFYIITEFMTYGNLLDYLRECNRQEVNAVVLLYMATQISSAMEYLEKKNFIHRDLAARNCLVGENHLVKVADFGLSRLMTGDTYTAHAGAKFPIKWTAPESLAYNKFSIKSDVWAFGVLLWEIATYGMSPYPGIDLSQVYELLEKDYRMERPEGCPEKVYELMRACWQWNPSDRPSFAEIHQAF
In short: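 His-tagged c-Abl kinase domain expressed in baculovirus/Sf9 cells; 50 ng enzyme with 30 μg/mL poly-AEKY, 5 μM ATP plus [γ-33P]-ATP, pH 7.5 Tris, 1% DMSO. Stopped with EDTA, captured on PVDF membrane and counted by scintillation. Values are % inhibition at 10 μM.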

[3] = target: T2, Flt3 (Homo sapiens, UniProt P36888); experiment: Enzymatic Flt3 in vitro inhibition; details: % inhibition at 10 μM
T2 sequence (P36888 27-993): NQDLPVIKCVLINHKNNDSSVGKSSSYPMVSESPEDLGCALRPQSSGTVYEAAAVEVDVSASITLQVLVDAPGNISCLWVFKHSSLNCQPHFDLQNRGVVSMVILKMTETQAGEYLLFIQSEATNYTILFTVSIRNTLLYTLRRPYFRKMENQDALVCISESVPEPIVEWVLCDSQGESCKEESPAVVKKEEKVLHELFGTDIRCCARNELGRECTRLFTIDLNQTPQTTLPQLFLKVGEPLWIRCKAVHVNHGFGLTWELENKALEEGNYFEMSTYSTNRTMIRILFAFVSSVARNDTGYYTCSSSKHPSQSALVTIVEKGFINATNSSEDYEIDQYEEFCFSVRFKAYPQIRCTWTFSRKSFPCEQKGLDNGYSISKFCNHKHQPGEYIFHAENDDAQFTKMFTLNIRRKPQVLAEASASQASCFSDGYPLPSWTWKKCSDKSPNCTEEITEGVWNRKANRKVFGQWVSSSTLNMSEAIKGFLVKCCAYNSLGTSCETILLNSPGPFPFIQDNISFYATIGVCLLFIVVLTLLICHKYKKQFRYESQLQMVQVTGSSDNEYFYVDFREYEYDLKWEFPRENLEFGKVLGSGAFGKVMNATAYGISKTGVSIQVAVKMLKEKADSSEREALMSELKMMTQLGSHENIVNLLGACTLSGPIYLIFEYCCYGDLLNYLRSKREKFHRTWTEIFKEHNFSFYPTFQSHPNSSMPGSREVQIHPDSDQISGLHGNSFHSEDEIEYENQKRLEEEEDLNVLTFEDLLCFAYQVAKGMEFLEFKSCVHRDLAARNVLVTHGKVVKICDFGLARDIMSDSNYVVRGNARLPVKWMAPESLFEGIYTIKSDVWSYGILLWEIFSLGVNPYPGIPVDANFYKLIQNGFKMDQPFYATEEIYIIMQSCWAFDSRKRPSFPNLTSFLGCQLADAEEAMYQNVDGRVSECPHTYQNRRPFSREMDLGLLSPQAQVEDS
Experimental: Enzymatic (c-Abl, KDR, Flt3) in vitro inhibition data are presented as % inhibition at 10 μM. The measurements are made as described above in the general description.

Sequence of KDR (P35968 20-1356): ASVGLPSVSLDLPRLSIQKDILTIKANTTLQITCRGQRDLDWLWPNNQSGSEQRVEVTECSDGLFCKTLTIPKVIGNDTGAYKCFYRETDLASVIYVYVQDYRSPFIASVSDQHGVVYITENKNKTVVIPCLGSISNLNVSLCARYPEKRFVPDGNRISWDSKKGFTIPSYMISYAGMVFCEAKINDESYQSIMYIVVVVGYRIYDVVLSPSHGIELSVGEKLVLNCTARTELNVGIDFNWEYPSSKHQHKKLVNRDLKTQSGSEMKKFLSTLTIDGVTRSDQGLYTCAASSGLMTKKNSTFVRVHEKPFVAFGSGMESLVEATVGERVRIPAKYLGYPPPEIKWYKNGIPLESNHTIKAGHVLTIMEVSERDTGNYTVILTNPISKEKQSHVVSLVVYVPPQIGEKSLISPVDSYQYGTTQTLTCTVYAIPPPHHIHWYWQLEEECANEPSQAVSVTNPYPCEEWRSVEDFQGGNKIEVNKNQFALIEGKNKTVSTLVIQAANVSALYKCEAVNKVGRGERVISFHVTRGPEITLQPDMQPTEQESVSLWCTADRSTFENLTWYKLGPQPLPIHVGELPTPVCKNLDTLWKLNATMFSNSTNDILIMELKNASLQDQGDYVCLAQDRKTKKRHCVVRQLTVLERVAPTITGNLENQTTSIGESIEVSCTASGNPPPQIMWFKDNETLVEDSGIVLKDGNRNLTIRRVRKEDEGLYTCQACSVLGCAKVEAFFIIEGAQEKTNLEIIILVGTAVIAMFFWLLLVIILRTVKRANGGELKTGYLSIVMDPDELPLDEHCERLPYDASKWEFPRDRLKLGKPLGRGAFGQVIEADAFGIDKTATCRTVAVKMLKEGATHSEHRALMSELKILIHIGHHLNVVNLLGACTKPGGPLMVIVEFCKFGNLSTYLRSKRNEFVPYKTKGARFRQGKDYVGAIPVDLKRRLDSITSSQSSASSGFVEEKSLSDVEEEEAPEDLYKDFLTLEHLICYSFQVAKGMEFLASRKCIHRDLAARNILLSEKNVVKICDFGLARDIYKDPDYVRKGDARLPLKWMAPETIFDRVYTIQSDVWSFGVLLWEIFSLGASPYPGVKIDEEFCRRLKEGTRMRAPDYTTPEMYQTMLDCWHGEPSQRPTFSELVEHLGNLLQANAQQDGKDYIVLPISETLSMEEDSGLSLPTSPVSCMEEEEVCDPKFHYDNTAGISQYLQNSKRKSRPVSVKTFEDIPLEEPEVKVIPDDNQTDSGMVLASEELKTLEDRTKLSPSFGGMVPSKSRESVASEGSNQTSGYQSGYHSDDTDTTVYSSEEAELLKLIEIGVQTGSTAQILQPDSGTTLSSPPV

Compound: CCN(CC)c1cccc(NC(=O)c2ccc(C)c(Nc3nccc(-c4cccnc4)n3)c2)c1 [Example 67, N-[3-(Diethylamino)phenyl]-4-methyl-3-[[4-(3-pyridinyl)-2-Pyrimidinyl]amino]benzamide]
- inhibition at 10 µM [1]: 88%
- inhibition at 10 µM [2]: 98%
- Flt3 %@10 μM [3]: 41%
